These results are taken from patent publication US20250154138A1, “Small Molecule IL-17A Modulators” (BeiGene, Ltd., priority 2022, published 2025).

Each structure is given as a SMILES string. pIC50: −log10 of the molar value. Like-named read-outs stand apart in the source and are kept apart here.

The test system of assay [1] is IL-17-induced GROα secretion from HT-29 cells. Nature of the assay: GROα release assay in human colorectal adenocarcinoma epithelial cell (HT-29, ELISA). Conditions: Homo sapiens, 10 ng/mL IL-17A, highest concentration 10 μM, read-out: Cellular assay HT29 cell/CXCL1 IC50. In kind it is cell-based. In outline:
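IC50 values come from four-parameter fits of GROα levels, quantified by ELISA (450 nm, standard curve) in supernatants. Compounds, 4-fold serially diluted from 10 μM, were mixed 15 min with IL-17A (10 ng/mL final) before 48 h incubation with HT-29 cells at 37°C.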
Background: An ELISA detects its analyte on a solid surface through an enzyme-linked reagent.

For assay [2], the target named is human IL-17A / human IL-17RA (Homo sapiens (Human), UniProt Q16552). In words: Human IL-17A biochemical assay (HTRF, blocking of IL-17A binding to IL-17RA). Conditions: 0.4 nM IL-17A, 0.3 nM IL-17RA, max compound concentration 10 uM. The method in brief:
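Compounds (10-point, 2.7-fold dilution from 10 uM) preincubated 3 h at RT with 0.4 nM human IL-17A, followed by 1 h with 0.3 nM IL-17RA and 1 h with Tb-cryptate/XL665 antibodies; buffer 20 mM HEPES pH 7.5, 0.1% BSA. Inhibition derived from HTRF fluorescence ratio; IC50 by four-parameter logistic fitting.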
(In general: In TR-FRET formats the signal depends on donor and acceptor labels being close together.)

Sequence of human IL-17A / human IL-17RA (Q16552 24-155): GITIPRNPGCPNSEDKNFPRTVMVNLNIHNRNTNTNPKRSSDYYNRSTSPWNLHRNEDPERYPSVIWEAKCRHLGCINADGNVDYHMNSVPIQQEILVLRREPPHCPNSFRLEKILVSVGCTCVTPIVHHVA

`Cc1nonc1C(=O)N[C@H](C(=O)Nc1ccc2c(c1)CC(N1C[C@@H](C(F)(F)F)NC1=O)C2)C1CCCCC1` (stereo partly drawn) [Example 213, N-((1S)-1-cyclohexyl-2-oxo-2-((2-((S)-2-oxo-4-(trifluoromethyl)imidazolidin-1-yl)-2,3-dihydro-1H-inden-5-yl)amino)ethyl)-4-methyl-1,2,5-oxadiazole-3-carboxamide]: the pIC50 in assay [1] (HT-29, 48 h) was 5.35; in assay [2] it was 5.75.
On to `CNC(=O)C1(N2CC(C)NC2=O)Cc2cc3nc([C@@H](NC(=O)c4nonc4C)C4CCCCC4)[nH]c3cc2C1` (stereo partly drawn) [Example 14, N-((1S)-cyclohexyl(6-(4-methyl-2-oxoimidazolidin-1-yl)-6-(methylcarbamoyl)-1,5,6,7-tetrahydroindeno[5,6-d]imidazol-2-yl)methyl)-4-methyl-1,2,5-oxadiazole-3-carboxamide], for which the pIC50 in assay [1] (HT-29, 48 h) was 6.52; in assay [2], 6.82.
For the compound `CNC(=O)C1(N2C[C@@H](C(C)C)NC2=O)Cc2ccc(NC(=O)[C@@H](NC(=O)Oc3ccccc3)C3CCCCC3)cc2C1` (stereo partly drawn) [Example 51, phenyl ((1S)-1-cyclohexyl-2-((2-((R)-4-isopropyl-2-oxoimidazolidin-1-yl)-2-(methylcarbamoyl)-2,3-dihydro-1H-inden-5-yl)amino)-2-oxoethyl)carbamate], the results for the pIC50 in assay [1] (48 hours) and in assay [2] were 5.69 and 6.16, respectively.
On to `CNC(=O)C1(N2CC3(CCC3)CNC2=O)Cc2ccc(NC(=O)[C@@H](NC(=O)c3nonc3C)C3CCCCC3)cc2C1` (stereo partly drawn) [Example 110, N-((1S)-1-cyclohexyl-2-((2-(methylcarbamoyl)-2-(7-oxo-6,8-diazaspiro[3.5]nonan-6-yl)-2,3-dihydro-1H-inden-5-yl)amino)-2-oxoethyl)-4-methyl-1,2,5-oxadiazole-3-carboxamide], for which the pIC50 is 7.12 in assay [1] (HT-29, 48 h) and 7.82 in assay [2].
On the same counts, the results for `CC(C)n1nccc1C(=O)N[C@H](C(=O)Nc1ccc2c(c1)CC(N1C[C@@H](C(F)(F)F)NC1=O)C2)C1CCCCC1` (stereo partly drawn) [Example 195, N-((1S)-1-cyclohexyl-2-oxo-2-((2-((S)-2-oxo-4-(trifluoromethyl)imidazolidin-1-yl)-2,3-dihydro-1H-inden-5-yl)amino)ethyl)-1-isopropyl-1H-pyrazole-5-carboxamide] are 6.42 and 6.89.
On to `CNC(=O)C1(N2C[C@@H](Cc3cccs3)NC2=O)Cc2ccc(NC(=O)[C@@H](NC(=O)c3ccnn3C)C3CCCCC3)cc2C1` (stereo partly drawn) [Example 57, N-((1S)-1-cyclohexyl-2-((2-(methylcarbamoyl)-2-((R)-2-oxo-4-(thiophen-2-ylmethyl)imidazolidin-1-yl)-2,3-dihydro-1H-inden-5-yl)amino)-2-oxoethyl)-1-methyl-1H-pyrazole-5-carboxamide], for which the pIC50 in assay [1] (HT-29, 48 h) is 5.67; in assay [2] it was 6.48.
The like results for `Cc1nonc1C(=O)N[C@H](C(=O)Nc1ccc2c(c1)CC(C(=O)NCC(C)C1CCCCC1)(N1CC3(CC3)CNC1=O)C2)C1CCC(F)(F)CC1` (stereo partly drawn) [Example 185, N-((1S)-2-((2-((2-cyclohexylpropyl)carbamoyl)-2-(6-oxo-5,7-diazaspiro[2.5]octan-5-yl)-2,3-dihydro-1H-inden-5-yl)amino)-1-(4,4-difluorocyclohexyl)-2-oxoethyl)-4-methyl-1,2,5-oxadiazole-3-carboxamide] were, in that order, 6.56 and 6.93.
The like results for `CC(C1Cc2ccc(NC(=O)[C@@H](NC(=O)c3ccnn3C(C)C)C(C3CC3)C3CC3)cc2O1)N1C[C@@H](C(F)(F)F)NC1=O` (stereo partly drawn) [Example 277, N-((2S)-1,1-dicyclopropyl-3-oxo-3-((2-(1-((S)-2-oxo-4-(trifluoromethyl)imidazolidin-1-yl)ethyl)-2,3-dihydrobenzofuran-6-yl)amino)propan-2-yl)-1-isopropyl-1H-pyrazole-5-carboxamide] were, in that order, 5.89 and 6.25.
Regarding `CNC(=O)C1(N2C[C@@H](Cc3ccccn3)NC2=O)Cc2ccc(NC(=O)[C@@H](NC(=O)c3ccnn3C)C3CCCCC3)cc2C1` (stereo partly drawn) [Example 43, N-((1S)-1-cyclohexyl-2-((2-(methylcarbamoyl)-2-((R)-2-oxo-4-(pyridin-2-ylmethyl)imidazolidin-1-yl)-2,3-dihydro-1H-inden-5-yl)amino)-2-oxoethyl)-1-methyl-1H-pyrazole-5-carboxamide], the pIC50 was 5.62 in assay [1] (HT-29, 48 h) and 5.83 in assay [2].
As to `CNC(=O)C1(N2C[C@@H](Cc3ccc(OC)cc3)NC2=O)Cc2ccc(NC(=O)[C@@H](NC(=O)c3ccnn3C)C3CCCCC3)cc2C1` (stereo partly drawn) [Example 56, N-((1S)-1-cyclohexyl-2-((2-((R)-4-(4-methoxybenzyl)-2-oxoimidazolidin-1-yl)-2-(methylcarbamoyl)-2,3-dihydro-1H-inden-5-yl)amino)-2-oxoethyl)-1-methyl-1H-pyrazole-5-carboxamide], the pIC50 is 7.63 in assay [1] (HT-29, 48 h) and 7.70 in assay [2].
With `CNC(=O)C1(N2C[C@@H](C(C)C)NC2=O)CCc2cc3[nH]c([C@@H](NC(=O)c4ccnn4C)C4CCCCC4)nc3cc2C1` (stereo partly drawn) [Example 123, 2-((S)-cyclohexyl(1-methyl-1H-pyrazole-5-carboxamido)methyl)-6-((R)-4-isopropyl-2-oxoimidazolidin-1-yl)-N-methyl-5,6,7,8-tetrahydro-1H-naphtho[2,3-d]imidazole-6-carboxamide], the pIC50 is 7.21 in assay [1] (HT-29, 48 h) and 6.36 in assay [2].
On the same counts, the results for `CNC(=O)C1(N2CC3(CC3)CNC2=O)Cc2ccc(NC(=O)[C@@H](NC(=O)c3nonc3C)C3CCC(F)(F)CC3)cc2C1` (stereo partly drawn) [Example 138, N-((1S)-1-(4,4-difluorocyclohexyl)-2-((2-(methylcarbamoyl)-2-(6-oxo-5,7-diazaspiro[2.5]octan-5-yl)-2,3-dihydro-1H-inden-5-yl)amino)-2-oxoethyl)-4-methyl-1,2,5-oxadiazole-3-carboxamide] are 7.00 and 7.27.
On the same counts, the results for `CCC1CNC(=O)N(C2(C(=O)NC)Cc3ccc(NC(=O)[C@@H](NC(=O)c4ccnn4C)C4CCCCC4)cc3C2)C1` (stereo partly drawn) [Example 75, N-((1S)-1-cyclohexyl-2-((2-(5-ethyl-2-oxotetrahydropyrimidin-1(2H)-yl)-2-(methylcarbamoyl)-2,3-dihydro-1H-inden-5-yl)amino)-2-oxoethyl)-1-methyl-1H-pyrazole-5-carboxamide] are 6.73 and 7.48.
On the same counts, the results for `Cn1nccc1C(=O)N[C@H](C(=O)Nc1ccc2c(c1)CC(C(=O)Nc1cccc(F)c1)(N1CC3(CC3)CNC1=O)C2)C1CCCCC1` (stereo partly drawn) [Example 200, N-((1S)-1-cyclohexyl-2-((2-((3-fluorophenyl)carbamoyl)-2-(6-oxo-5,7-diazaspiro[2.5]octan-5-yl)-2,3-dihydro-1H-inden-5-yl)amino)-2-oxoethyl)-1-methyl-1H-pyrazole-5-carboxamide] are 6.97 and 7.51.
For the compound `CNC(=O)C1(N2C[C@@H](C(C)C)NC2=O)Cc2ccc(NC(=O)C(NC(=O)c3ccnn3C)C3CCc4ccccc4C3)cc2C1` (stereo partly drawn) [Example 128, N-(2-((2-((R)-4-isopropyl-2-oxoimidazolidin-1-yl)-2-(methylcarbamoyl)-2,3-dihydro-1H-inden-5-yl)amino)-2-oxo-1-(1,2,3,4-tetrahydronaphthalen-2-yl)ethyl)-1-methyl-1H-pyrazole-5-carboxamide], the pIC50 was 6.56 in assay [1] (HT-29, 48 h) and 7.05 in assay [2].
On the same counts, the results for `CNC(=O)C1(N2CC3(CC3)CNC2=O)Cc2ccc(NC(=O)[C@@H](NC(=O)c3ccnn3C3CC3)C3CCCCC3)cc2C1` (stereo partly drawn) [Example 141, N-((1S)-1-cyclohexyl-2-((2-(methylcarbamoyl)-2-(6-oxo-5,7-diazaspiro[2.5]octan-5-yl)-2,3-dihydro-1H-inden-5-yl)amino)-2-oxoethyl)-1-cyclopropyl-1H-pyrazole-5-carboxamide] are 7.39 and 7.80.
On the same counts, the results for `COC(=O)C1(N2CC3(CC3)CNC2=O)Cc2ccc(NC(=O)C(NC(=O)c3ccnn3C)C3CCC(C(C)C)CC3)cc2C1` (centres unmarked) [Example 148, methyl 5-(2-(4-isopropylcyclohexyl)-2-(1-methyl-1H-pyrazole-5-carboxamido)acetamido)-2-(6-oxo-5,7-diazaspiro[2.5]octan-5-yl)-2,3-dihydro-1H-indene-2-carboxylate] are 6.79 and 7.21.
Regarding `CC(C)[C@@H]1CN(C2(C(N)=O)Cc3ccc(NC(=O)[C@@H](NC(=O)c4ccnn4C)C4CCCCCC4)cc3C2)C(=O)N1` (stereo partly drawn) [Example 83, N-((1S)-2-((2-carbamoyl-2-((R)-4-isopropyl-2-oxoimidazolidin-1-yl)-2,3-dihydro-1H-inden-5-yl)amino)-1-cycloheptyl-2-oxoethyl)-1-methyl-1H-pyrazole-5-carboxamide], the pIC50 was 6.72 in assay [1] (HT-29, 48 h) and 7.66 in assay [2].
The like results for `C#CCC1CN(C2(C(=O)NC)Cc3ccc(NC(=O)[C@@H](NC(=O)c4ccnn4C)C4CCCCC4)cc3C2)C(=O)N1` (stereo partly drawn) [Example 63, N-((1S)-1-cyclohexyl-2-((2-(methylcarbamoyl)-2-(2-oxo-4-(prop-2-yn-1-yl)imidazolidin-1-yl)-2,3-dihydro-1H-inden-5-yl)amino)-2-oxoethyl)-1-methyl-1H-pyrazole-5-carboxamide] were, in that order, 6.49 and 7.07.
